Measurements: publication PMC4367962 (Nature, 2014)

How the values were obtained:
[1] = system: mir-155^LSLtTA lymphoma subcutaneous flank tumors; test: mir-155^LSLtTA lymphoma subcutaneous flank tumor model in nude mice; assay type: in vivo; conditions: early endpoint study; n = 3, pHLIP-anti155 n = 4
[2] = mouse, in vivo, iv

| Compound | Onset of splenomegaly (spleen mass) [1] | Clearance route [2] | Kidney distribution [2] |
| --- | --- | --- | --- |
| C[C@H]1c2cccc(O)c2C(=O)C2=C(O)[C@]3(O)C(=O)C(C(N)=O)=C(O)[C@@H](N(C)C)[C@@H]3[C@@H](O)[C@@H]21 [DOX, doxycycline] | reduced the onset of splenomegaly |  |  |
| AAEQNPIYWARYADWLFTTPLLLLDLALLVDADEGT(CNPys)G [pHLIP] |  | much of the peptide is cleared by renal excretion | shows kidney targeting |
